Source: ChEMBL document CHEMBL1158514, “Molecular design of small organic molecules based on structural information for a conformationally constrained peptide that binds to G-CSF receptor” (Bioorg Med Chem Lett, 2010)

Target: T1, Granulocyte colony-stimulating factor receptor (Homo sapiens, UniProt Q99062)
T1 sequence (Q99062 whole entry): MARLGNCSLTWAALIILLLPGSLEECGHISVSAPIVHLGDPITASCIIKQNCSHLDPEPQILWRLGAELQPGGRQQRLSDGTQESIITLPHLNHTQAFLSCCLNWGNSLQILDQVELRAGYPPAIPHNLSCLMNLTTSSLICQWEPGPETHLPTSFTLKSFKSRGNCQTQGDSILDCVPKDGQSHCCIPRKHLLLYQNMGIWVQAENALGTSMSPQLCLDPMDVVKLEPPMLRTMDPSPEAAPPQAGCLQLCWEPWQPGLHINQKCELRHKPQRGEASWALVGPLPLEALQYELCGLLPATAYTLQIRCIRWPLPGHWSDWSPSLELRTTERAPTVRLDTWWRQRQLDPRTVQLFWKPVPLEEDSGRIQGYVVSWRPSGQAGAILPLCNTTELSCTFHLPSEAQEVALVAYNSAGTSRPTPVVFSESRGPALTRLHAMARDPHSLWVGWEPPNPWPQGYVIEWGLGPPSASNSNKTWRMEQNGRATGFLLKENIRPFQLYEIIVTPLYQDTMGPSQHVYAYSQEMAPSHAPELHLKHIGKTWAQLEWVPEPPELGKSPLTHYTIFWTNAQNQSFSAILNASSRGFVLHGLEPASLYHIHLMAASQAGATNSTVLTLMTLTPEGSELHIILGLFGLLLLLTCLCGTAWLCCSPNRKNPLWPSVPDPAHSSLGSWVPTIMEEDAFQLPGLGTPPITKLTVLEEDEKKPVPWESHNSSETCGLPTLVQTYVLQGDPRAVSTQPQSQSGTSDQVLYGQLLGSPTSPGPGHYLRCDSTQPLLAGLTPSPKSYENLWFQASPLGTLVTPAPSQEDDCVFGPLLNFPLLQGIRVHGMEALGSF
Assay: Binding affinity to granulocyte colony stimulating factor receptor by SPR biosensor technique; call rule not given here

Row | Kd | Kd (read-out: Kd) [µM] | SMILES
1 | Not Active | – | CC(C)CCOc1cc(OCCCN)cc(-c2ccc(CCC(N)=O)c(CCC(=O)O)c2)c1
2 | – | 47 | CC(C)CCOc1cc(CN(CCC(=O)O)c2cccc(CCC(N)=O)c2)cc(OCCCN)c1
3 | Not Active | – | CC(C)CCOc1cc(CN(CCC(N)=O)c2cccc(CCC(=O)O)c2)cc(OCCCN)c1
4 | – | 20 | CC(C)CCOc1cc(OCCCN)cc(-c2ccc(CCC(=O)O)c(CCC(N)=O)c2)c1
